This note sets out measurements from a melting point compilation (Tetko et al.; mined from patent text by program, amines drawn as free bases though some values may be those of a salt).

On to `Cc1c2n(c3ccccc13)C(=O)N(C(C)c1ncn(C(c3ccccc3)(c3ccccc3)c3ccccc3)c1C)CC2` (stereo not drawn), for which the melting point fell in the range of 71 to 76 °C.
In the case of `Cc1cc(C2=NOC(c3cc(Cl)cc(Cl)c3)(C(F)(F)F)C2)ccc1C(=O)N(C)c1cncnc1` (stereo not drawn), the melting point lay within 197 to 200 °C.
Compound `O=S(=O)(c1ccc2ccccc2c1)n1ccc2ccccc21` displayed a melting point of 103 to 105 °C.
Under `CN1CCN(c2cc(Cl)cc3c2c(=O)n(Cc2cccc(F)c2)c(=O)n3Cc2ccccc2)CC1` stands 148 to 150 °C.
The compound `COc1ccc(-n2c(C)nnc2S)cc1` displayed a melting point of 214 °C.
In turn, `CN(C(=O)[C@H]1C[C@H](C(=O)O)[C@@H](c2ccccc2F)N1C(=O)CNC(=O)Nc1cccc(CC(=O)O)c1)c1ccccc1` (racemic) had a melting point of 164 °C.
`CC(=O)N1CCC(c2nc3cccc4c3n2CCC4)CC1` gave a melting point of 139 to 140 °C.
Compound `CC(=O)c1cc(C#N)c(=O)n(C=CN(C)C)c1` showed a melting point of 267 to 270 °C.
Consider `CC(CCC=O)C1CCC2C3CC=C4CC(O)CC(O)C4(C)C3CCC12C` (stereo not drawn), for which the melting point was in the range of 120 to 122 °C.
Next, `COc1ccc2c(c1)C(=O)N(c1ccc3[nH]c(=O)ccc3c1)C2`: 305 to 310 °C.
Under `O=C1CNCc2cc(-c3ccc(F)cc3)c(C=NO)c3ccn1c23` stands 277 to 279 °C.
In turn, `N#CC(CCN1CCC(c2ccccc2)CC1)(c1ccccc1)c1ccccc1` gave a melting point of 88 to 89.5 °C.
Under `O=S1(=O)CCN2C=CC=C(c3ccc(OCC4CCOCC4)cc3)C2=N1` stands 268 to 269 °C; under `O=C1c2cc(Br)ccc2CCC1Cc1cccnc1` (stereo not drawn), 63 to 67 °C.
Next, `C[C@@H]1Cc2cc3c(cc2C(c2ccc(N)cc2)=NN1c1ccccc1)OCO3`: 118 to 119 °C.
In turn, `CS(=O)(=O)c1ccc(-c2cnn(CC(F)(F)F)c(=O)c2SCC(F)(F)F)cc1` had a melting point of 155 to 158 °C.
As to `Cc1c(O)ccc2cc(Br)ccc12`, the melting point lay within 127 to 129 °C.
Under `CC(C)(C)c1ccc(CCC(=O)N2C(=O)OC[C@@H]2Cc2ccccc2)cc1` stands 123 to 126 °C; under `CCOC(=O)c1ccc(-c2ccc(OCCCNC3CC3)c(-c3ccc4c(c3)C(C)(C)CCC4(C)C)c2)cc1`, 141 °C.
`NC(=O)c1ccccc1N1CCc2cc(Cl)cc([N+](=O)[O-])c21` registered a melting point of 225 to 226 °C.
Turning to `N#CCCNC(=O)c1cccc(-c2ccc3c(c2)N(c2ccc(Cl)cc2Cl)CCO3)c1`, the melting point lay within 147 to 148 °C.
Next, `O=S(CCCCF)CCCCCOc1ccc(C2=C(c3ccccc3)CCCc3cc(O)ccc32)cc1` (stereo not drawn): 233 °C; `CC(=O)NC[C@H]1CN(c2ccc(N3CCC(F)(CO)CC3)c(F)c2)C(=O)O1`: 154 to 156 °C; `N#CCCCCCCn1c(-c2ccccc2)nc(-c2ccccc2)c1-c1ccccc1`: 104 to 106 °C.
Next, `O=c1[nH]c2cc(Cl)ccc2c(O)c1-c1cccc([N+](=O)[O-])c1`: 329 to 332 °C; `COC(=O)C(NS(=O)(=O)c1ccc(-c2ccc([N+](=O)[O-])cc2)cc1)C(C)C` (stereo not drawn): 144 to 146 °C.
Consider `CC(C)(C)C(=O)SCC1CCCCCCCSC[C@@H](C(=O)OCc2ccccc2)NC1=O` (stereo partly drawn), for which the melting point was 135 to 137 °C.
For the compound `O=C1CS(=O)c2ccccc2N1` (stereo not drawn), the melting point was 184 to 186 °C.
Under `Cc1c(F)cccc1Cc1c(-c2ccccc2)c2cc(O)cnn2c1C(=O)N1CCN(C(=O)OC(C)(C)C)CC1` stands 165 °C; under `CCCCc1nc2sccc2[nH]1`, 160 °C.
`COc1cc(NS(=O)(=O)c2ccc3c(c2)CCN3C=O)cc(OC)c1OC` had a melting point of 200 to 201 °C.
In turn, `Cc1ccc(-c2cncc(OC3SCC(O)C(O)C3O)c2)c(Cl)c1` (stereo not drawn) returned a melting point of 207 °C.
In turn, `Cc1cc(-c2cc(C(F)(F)F)n3cnc(-c4cccnc4)c3n2)ccc1Cl` had a melting point of 210 °C.
Next, `Cc1cccc(C(=O)c2ccc(F)cc2)n1`: 53 to 54 °C.
Under `O=C(O)c1cc2c(s1)-c1cc(F)ccc1CC2` stands 240 to 242 °C.
Next, `CCCc1ccc(Oc2c(-c3ccc(S(C)(=O)=O)cc3)cnn(CC(F)(F)F)c2=O)cc1`: 152 to 153 °C; `CCCCCCCCOC(=O)CS(=O)(=O)Nc1c(C(C)C)cccc1C(C)C`: 56 to 58 °C.
As for `O=C(O)CC(CC(=O)O)C(F)(F)F`, the melting point is 100 °C.
Consider `CCCCC1(N(C)C)CCC(c2[nH]c3ccccc3c2CC2CCCCC2)CC1` (stereo not drawn), for which the melting point fell in the range of 155 to 165 °C.
Under `O=C1CC(c2cccc(-n3ccnc3)c2)=Nc2cc(O)c(C#Cc3ccc(F)cc3)cc2N1` stands 247 °C.
Next, `N#Cc1c(F)cccc1-c1ccccc1`: 78 to 79 °C; `O=[N+]([O-])c1ccc(-c2ccc(-c3cn([C@H]4CN5CCC4CC5)nn3)s2)cn1`: 160 °C.
The compound `COc1ccc2[nH]c3c(c2c1)C[C@@]1(C)C(=O)N(CCN2CCOCC2)C(=O)N1[C@@H]3c1cccc(O)c1` (racemic) gave a melting point of 260 to 263 °C.
For the compound `COc1nc2c(c(OC)n1)C(c1ccc(O)c(OC)c1)C1=C(COC1=O)N2` (stereo not drawn), the melting point is 294 to 296 °C.
As for `CCOP(=O)(CN1CCC(N(C)S(=O)(=O)c2ccc(Nc3nccc(Nc4ccc(F)c(F)c4)n3)cc2)CC1)OCC`, the melting point amounted to 138 °C.
For `CN(C)CCN(C)c1ccc(Nc2cc(Br)cn(C)c2=O)nc1`, the melting point was in the range of 161 to 163 °C.
Next, `COc1cc(CO)nnc1OC`: 151 to 153 °C; `Cc1cccc(Nc2ccccc2[N+](=O)[O-])c1C`: 118 to 120 °C; `CCCn1c(=Nc2ccc([N+](=O)[O-])cc2)sc2ncccc2c1=O`: 112 to 113 °C.
Regarding `C[C@H](O)c1nnc(-c2ccc3occ(-c4cc(F)ccc4Cl)c3c2)o1`, the melting point was in the range of 204 to 205 °C.
Next, `C1=C(c2c[nH]cn2)c2ccccc2C1`: 232 to 240 °C; `COC(=O)C1(Sc2cc(N3C(=O)C4=CCCCC4C3=O)c(F)cc2Cl)CCC1` (stereo not drawn): 98 °C; `CCOC(=O)c1sc(-n2cnn(CC3CC3(F)F)c2=O)nc1C` (stereo not drawn): 146 to 148 °C.
`CCCc1c(COc2ccc(Cc3nnn(Cc4ccc(-c5nnn[nH]5)cc4)n3)cc2)ccc(C(C)=O)c1O` yielded a melting point of 86 to 88 °C.
Under `O=C(CCC(=O)c1ccccc1)NC1CNCCO1` (stereo not drawn) stands 87 to 89 °C; under `CC1CCc2c(N3CCCC3)c(F)cc3c(=O)c(C(=O)O)cn1c23` (stereo not drawn), 243 to 245 °C.
The compound `CN1CCN(c2ccc(S(=O)(=O)Oc3cc(Cl)c(Cl)cc3Cl)cc2)C1=O` came in with a melting point of 181 to 183 °C.
Under `Cc1ccc(S(=O)(=O)N(C)F)cc1` stands 42 to 44 °C; under `COC(=O)c1cc(I)ccc1Nc1ccccc1C(=O)O`, 230 to 232 °C.
Next, `O=C(CC(CNS(=O)(=O)c1ccc(Oc2ccccc2)cc1)c1ccc(Cl)cc1)Nc1ccc(C(=O)O)cc1` (stereo not drawn): 119 to 121 °C.
Take `O=c1[nH]c2cccc(Cl)c2c2cc(CO)nn12`: the melting point is 295 to 296 °C.
Next, `FC(F)Sc1nnc(-c2ccc(Cl)cc2)s1`: 74 to 76 °C; `CC1(C)C=Cc2cc(C#N)c(N)cc2O1`: 137 to 138 °C.
`CCCCCCCCC1(CCn2ccnc2)SCCS1` yielded a melting point of 98 to 101 °C.
The compound `CCCCCC(=O)C=[PH2]c1ccccc1` showed a melting point of 73 to 74 °C.
Under `CCOCc1c[nH]c(=O)c(N)c1Sc1cc(C)cc(C)c1` stands 149 to 150 °C; under `Fc1ccc(Cc2ccccc2N2CCN(c3ccncc3)CC2)cc1`, 110 to 111 °C; under `CC/C=C\CCCCCCCCCCOc1ccc(C(=O)O)o1`, 89 to 90 °C.
`CCOC(=O)c1c(CN=[N+]=[N-])cccc1S(=O)(=O)NC(=O)Nc1nc(OC)cc(OC)n1` showed a melting point of 158 to 160 °C.
Under `Cc1nc2c(Cl)cc(Cl)cc2c(=O)n1C1CCC(=O)NC1=O` (stereo not drawn) stands 238 to 240 °C; under `CS(=O)(=O)c1ccc(-n2nc(C(F)(F)F)cc2-c2nc3ccc(F)cc3o2)cc1`, 216 to 218 °C; under `Cc1c(C(=O)C(N)=O)c2c(OCC(=O)O)cc3c(c2n1Cc1ccccc1)CCC3`, 255 to 257 °C.
The compound `COc1cccc(-n2c(=O)oc3ccc(-c4ccc(F)cc4F)cc3c2=O)c1` returned a melting point of 160 to 161 °C.
Under `COc1ccc(S(=O)(=O)CC(O)(CS(=O)(=O)c2ccc(-c3ccccc3)cc2)C(=O)NO)cc1` (stereo not drawn) stands 72 to 76 °C; under `COC1=C(OC)C(=O)C(CCCCCCc2ccc(O)cc2)=C(C)C1=O`, 87 to 88 °C.
For the compound `CCOCc1cccc2[nH]c3cnc(C(=O)OCC)c(COC)c3c12`, the melting point lay within 94 to 97 °C.
Under `COCC1(C)CCOc2ccc(/C=C/c3ccc(C(=O)O)cc3)cc21` (stereo not drawn) stands 209 to 210 °C.
Next, `OC[C@@](O)(Cc1ccccc1)c1ccccc1`: 62 °C; `Nc1ccc2ccc(OCc3ccc4ccccc4n3)cc2c1`: 164 to 166 °C.
With `O=C(NS(=O)(=O)NCCc1ccccc1)OCc1ccccc1`, the melting point was in the range of 120 to 121 °C.
Turning to `CCn1ncc2c3onc(-c4ccc(Cl)cc4)c3cnc21`, the melting point lay in the range of 195 to 197 °C.
Under `O=c1[nH]c2cc([N+](=O)[O-])c(Sc3cccc4cnccc34)cc2o1` stands 255 to 260 °C; under `Cc1cc(NC(=O)C(CSC(=O)CC(C)C)Cc2ccccc2)cc(C(=O)O)c1` (stereo not drawn), 153 to 157 °C; under `O=S1(=O)Cc2cc(Cl)ccc2Oc2ccccc21`, 159 to 166 °C.
`CCCCCCCCCCCCCCCCOCC(O)CN1CCC(c2ccccc2)CC1` (stereo not drawn) had a melting point of 64 to 65 °C.
`CC(C)c1cccc(C(C)C)c1NC(=O)NC(c1ccccc1)c1ccccc1` gave a melting point of 245 to 246 °C.
Compound `CCn1cc(C(=O)O)c(=O)c2cc(F)c(N3CCC(NS(=O)(=O)c4ccc(N)cc4)C3)c(F)c21` (stereo not drawn) returned a melting point of 214 to 216 °C.
Under `COc1ccc2cc3c(c(-c4ccc(OC(F)(F)F)cc4)c2c1)CNC3=O` stands 277 to 280 °C.

For orientation: melting point means the temperature of the solid-liquid transition.
